Measurements taken from PubChem BioAssay AID1963983 (Molecular Pharmacology Branch, DTP, NCI, 2024).

System: 186277-243-T-J2-PDC multi-cell spheroid viability
Experiment: Anticancer human tumor 186277-243-T-J2-PDC patient-derived colon adenocarcinoma cell line growth inhibition [PI3K]
Conditions: for IC50: curve of first compound; for viability, T/C: stronger effect = lower value
Description: Combinatorial screen of targeted agents with the PI3K inhibitors inavolisib, alpelisib, duvelisib, and copanlisib in multi-cell type tumor spheroids
A high-throughput screen of multi-cell type tumor spheroids was designed to identify active combinations of targeted small molecules and PI3K pathway inhibitors. Complex spheroids include a stromal component modeled by human endothelial cells (HUVEC) and fibroblasts modeled by human mesenchymal stem cells (MSCs). The concentration ranges selected for each drug and investigational agent were based upon clinically achievable concentrations if the clinical Cmax of the agent was known.
Compounds. The drugs and investigational agents: inavolisib (NSC800729), alpelisib (NSC765974), duvelisib (NSC772469), copanlisib (NSC816437), ipatasertib (NSC767898), afuresertib (NSC778305), talazoparib (NSC767125), sapanisertib (NSC764658), selumetinib (NSC741078), tovorafenib (DAY101, NSC766906), vemurafenib (NSC761431), ravoxertinib (NSC781343), sotorasib (NSC818433), MRTX1133 (NSC 836407), abemaciclib (NSC 768073), palbociclib (NSC758247), venetoclax (NSC 766270), SY5609 (NSC837396), enzalutamide (NSC755605), and darolutamide (NSC825331), were obtained from the National Cancer Institute (NCI) Developmental Therapeutics Program Chemical Repository. The FDA-approved anticancer drug set is available from the NCI Developmental Therapeutics Program. […] The stock solutions were prepared in dimethyl sulfoxide (DMSO, Sigma-Aldrich, St. Louis, MO, cat. D2650) at 800-fold the tested concentration and stored at -70 degrees C prior to their use. All drugs and investigational agents were tested over a range starting from a high concentration at or near the clinical Cmax and decreasing in half-log increments. If the clinical Cmax for an agent had not been determined, the highest concentration tested was 10 microM.
Cell Culture. All cells were maintained in an incubator at 37 degrees C and 5% CO2 with 95% humidity. The PDC lines were cultured according to standard operating procedures established by the NCI PDMR (https://pdmr.cancer.gov/sops/default.htm). All PDCs were thawed and cultured in Matrigel-coated flasks prepared with a working solution of 1X Ham's F-12 nutrient mix, without supplementation (Invitrogen, Waltham, MA, cat. 11765054), 100 U/mL penicillin-streptomycin (Invitrogen, cat. 15140122), and 2.5% Matrigel (Corning Inc., Corning, NY, cat. 354248) for the first three passages. The 354836-022-R-J1-PDC, 475296-252-R-J1-PDC, and 997726-040-R-J2-PDC lines were cultured in 6A media, which includes advanced DMEM/F-12 (Thermo Fisher Scientific, cat. 12634028), 10 mM HEPES (Thermo Fisher Scientific, cat. 15630080), 1X GlutaMAX supplement (Thermo Fisher Scientific, cat. 35050061), 0.1 mg/mL primocin (InvivoGen, San Diego, CA, cat. ant-pm-2), 10% defined fetal bovine serum, heat inactivated (HyClone Laboratories Inc., Logan, UT, cat. SH30070.03HI), 50% L-WRN conditioned media (ATCC, cat. CRL-3276), 1.25 mM N-Acetyl-L-cysteine (Sigma-Aldrich, cat. A9165), 10 mM nicotinamide (Sigma-Aldrich, cat. N0636), 1X B-27 supplement (Thermo Fisher Scientific, cat. 17504044), 1X N-2 supplement (Thermo Fisher Scientific, cat. 17502048), and 10 microM Y-27632 dihydrochloride (Tocris Bioscience, Bristol, United Kingdom, cat. 1254). The 624824-186-R-J2-PDC line was cultured in 6C/Colon 1B media, which includes all 6A media components plus 50 ng/mL human EGF recombinant protein (Thermo Fisher Scientific, cat. PHG0311). […]

[1] = second compound 0.0316 µM, first compound 0.0316 µM
[2] = second compound 0.0316 µM, first compound 0.1 µM
[3] = second compound 0.0316 µM, first compound 0.316 µM
[4] = second compound 0.0316 µM, first compound 1 µM
[5] = second compound 0.0316 µM, first compound 3.16 µM
[6] = second compound 0.0316 µM, first compound 10 µM
[7] = second compound 0.1 µM, first compound 0.0316 µM
[8] = second compound 0.1 µM, first compound 0.1 µM
[9] = second compound 0.1 µM, first compound 0.316 µM
[10] = second compound 0.1 µM, first compound 1 µM
[11] = second compound 0.1 µM, first compound 3.16 µM
[12] = second compound 0.1 µM, first compound 10 µM
[13] = second compound 0.316 µM, first compound 0.0316 µM
[14] = second compound 0.316 µM, first compound 0.1 µM
[15] = second compound 0.316 µM, first compound 0.316 µM
[16] = second compound 0.316 µM, first compound 1 µM
[17] = second compound 0.316 µM, first compound 3.16 µM
[18] = second compound 0.316 µM, first compound 10 µM
[19] = second compound 1 µM, first compound 0.0316 µM
[20] = second compound 1 µM, first compound 0.1 µM
[21] = second compound 1 µM, first compound 0.316 µM
[22] = second compound 1 µM, first compound 1 µM
[23] = second compound 1 µM, first compound 3.16 µM
[24] = second compound 1 µM, first compound 10 µM
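Also: spheroids exposed to compounds for seven days before viability reading.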
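For viability, T/C in this document: 100% = DMSO vehicle control viability.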

Compound `CNC(=O)c1ccc(N2C(=S)N(c3ccc(C#N)c(C(F)(F)F)c3)C(=O)C2(C)C)cc1F` + COc1c(OCCCN2CCOCC2)ccc2c3n(c(=NC(=O)c4cnc(N)nc4)nc12)CCN3 has an IC50 (second compound 0.00316 µM) of over 10000 nM, an IC50 (second compound 0.01 µM) of over 10000 nM and an IC50 (second compound 0.0316 µM) of over 10000 nM. For the same compound, the IC50 (second compound 0.1 µM) was under 31.6 nM, the IC50 (second compound 0.316 µM) was under 31.6 nM and the IC50 (second compound 1 µM) was under 31.6 nM. The viability, T/C (second compound 0.00316 µM, first compound 0.0316 µM) was 110%, the viability, T/C (second compound 0.00316 µM, first compound 0.1 µM) was 113% and the viability, T/C (second compound 0.00316 µM, first compound 0.316 µM) was 111%. It also gave a viability, T/C (second compound 0.00316 µM, first compound 1 µM) of 88.2%, a viability, T/C (second compound 0.00316 µM, first compound 3.16 µM) of 112% and a viability, T/C (second compound 0.00316 µM, first compound 10 µM) of 107%. It also gave a viability, T/C (second compound 0.01 µM, first compound 0.0316 µM) of 98.8%, a viability, T/C (second compound 0.01 µM, first compound 0.1 µM) of 121% and a viability, T/C (second compound 0.01 µM, first compound 0.316 µM) of 103%. The viability, T/C (second compound 0.01 µM, first compound 1 µM) was 94.8%, the viability, T/C (second compound 0.01 µM, first compound 3.16 µM) was 112% and the viability, T/C (second compound 0.01 µM, first compound 10 µM) was 115%. It also gave a viability, T/C [1] of 88.9%, a viability, T/C [2] of 85.6% and a viability, T/C [3] of 81.3%. It also gave a viability, T/C [4] of 81.7%, a viability, T/C [5] of 95.3% and a viability, T/C [6] of 73.4%. The viability, T/C [7] was 23.3%, the viability, T/C [8] was 20.2% and the viability, T/C [9] was 21.5%. For the same compound, the viability, T/C [10] was 17.8%, the viability, T/C [11] was 19.6% and the viability, T/C [12] was 22.7%. It also gave a viability, T/C [13] of 6.01%, a viability, T/C [14] of 6.73% and a viability, T/C [15] of 4.24%. For the same compound, the viability, T/C [16] was 5.77%, the viability, T/C [17] was 7.13% and the viability, T/C [18] was 5.44%. The viability, T/C [19] was 3.23%, the viability, T/C [20] was 2.22% and the viability, T/C [21] was 3.19%. For the same compound, the viability, T/C [22] was 1.9%, the viability, T/C [23] was 2.85% and the viability, T/C [24] was 4.06%.

In the case of `Cn1ncc(Cl)c1-c1cc(C(=O)NC(CN)Cc2cccc(F)c2)sc1Cl` (centres undefined) + Cc1nc(NC(=O)N2CCCC2C(N)=O)sc1-c1ccnc(C(C)(C)C(F)(F)F)c1, the IC50 (second compound 0.0316 µM) is reported as 960 nM, the IC50 (second compound 0.1 µM) is reported as 253 nM and the IC50 (second compound 0.316 µM) is reported as 225 nM. It also gave an IC50 (second compound 1 µM) of 157 nM, an IC50 (second compound 3.16 µM) of under 31.6 nM and an IC50 (second compound 10 µM) of under 31.6 nM. The viability, T/C [1] was 96.2%, the viability, T/C [2] was 87.8% and the viability, T/C [3] was 56.8%. It also gave a viability, T/C [4] of 47.8%, a viability, T/C [5] of 43% and a viability, T/C [6] of 17.3%. The viability, T/C [7] was 112%, the viability, T/C [8] was 68% and the viability, T/C [9] was 43.4%. For the same compound, the viability, T/C [10] was 32.4%, the viability, T/C [11] was 33.2% and the viability, T/C [12] was 11.6%. The viability, T/C [13] was 114%, the viability, T/C [14] was 66.2% and the viability, T/C [15] was 43%. The viability, T/C [16] was 26.3%, the viability, T/C [17] was 25.3% and the viability, T/C [18] was 9.1%. The viability, T/C [19] was 95%, the viability, T/C [20] was 65.7% and the viability, T/C [21] was 25%. The viability, T/C [22] was 14.7%, the viability, T/C [23] was 17.2% and the viability, T/C [24] was 3.49%. For the same compound, the viability, T/C (second compound 3.16 µM, first compound 0.0316 µM) was 48.7%, the viability, T/C (second compound 3.16 µM, first compound 0.1 µM) was 33.7% and the viability, T/C (second compound 3.16 µM, first compound 0.316 µM) was 19.6%. It also gave a viability, T/C (second compound 3.16 µM, first compound 1 µM) of 13.7%, a viability, T/C (second compound 3.16 µM, first compound 3.16 µM) of 8.89% and a viability, T/C (second compound 3.16 µM, first compound 10 µM) of 1.65%. It also gave a viability, T/C (second compound 10 µM, first compound 0.0316 µM) of 15.7%, a viability, T/C (second compound 10 µM, first compound 0.1 µM) of 8.3% and a viability, T/C (second compound 10 µM, first compound 0.316 µM) of 6.89%. It also gave a viability, T/C (second compound 10 µM, first compound 1 µM) of 6.6%, a viability, T/C (second compound 10 µM, first compound 3.16 µM) of 3.36% and a viability, T/C (second compound 10 µM, first compound 10 µM) of 3.79%.
